Each structure is given as a SMILES string. Values joined by “and” are separate entries in the source; they are usually repeats but may differ in a detail not shown here. Equal entries are not always repeated.

The test concerns LG0703-F498-PDC complex spheroid growth. The test is described as follows: Anticancer human tumor LG0703-F498-PDC patient-derived lung adenocarcinoma cell line growth inhibition [AhR]. Particulars: for viability, T/C: stronger effect = lower value; for IC50: curve of compound. The text has this:
Multicellular complex tumor spheroid response to aryl hydrocarbon receptor antagonists in combination with a variety of drugs and investigational agents in selected tumor cell lines
The current study was undertaken to assess response to aryl hydrocarbon receptor antagonists in combination with standard-of-care drugs and investigational agents in solid tumor complex spheroid models. Complex spheroids include a stromal component modeled by human endothelial cells (HUVEC) and fibroblasts modeled by human mesenchymal stem cells (MSCs). The concentration ranges selected for each drug and investigational agent were based upon clinically achievable concentrations if the clinical Cmax of the agent was known.
Compounds. The drugs and investigational agents: BAY 2416964 (NSC825713), GNF351 (NSC835774), CH-223191 (NSC835775), CPI-455 (NSC825282), aza-TdCyd (NSC777586), decitabine (NSC127716), belinostat (NSC758774), entinostat (NSC756642), pevonedistat (NSC761192), tazemetostat (NSC777109), talazoparib (NSC765396), olaparib (NSC753686), selinexor (NSC780203), nedisertib (M3814, NSC802822), bortezomib (NSC756655), venetoclax (NSC766270), doxorubicin (NSC123127), elimusertib (BAY189344, NSC800525), ceralasertib (AZD6738, NSC777638), TAK-243 (NSC785004), alisertib (NSC759677), etoposide (NSC141540), topotecan (NSC609699), eribulin (NSC707389), gemcitabine (NSC613327), carboplatin (NSC241240), cisplatin (NSC119875), and SN-38 (NSC673596) were obtained from the National Cancer Institute (NCI) Developmental Therapeutics Program Chemical Repository (32). The FDA-approved anticancer drug set is available from the Developmental Therapeutics Program at https://dtp.cancer.gov/organization/dscb/obtaining/available plates.htm. […] The stock solutions were prepared in dimethyl sulfoxide (DMSO, Sigma-Aldrich, St. Louis, MO, cat. D2650), except for the platinum compounds which were prepared in saline (Quality Biological, Gaithersburg, MD, cat. 114-055-101), at 800-fold the tested concentration and stored at -70 degrees C prior to their use. All drugs and investigational agents were tested over a range starting from a high concentration at or near the clinical Cmax and decreasing in half-log increments. If the clinical Cmax for an agent had not been determined, the highest concentration tested was 10 microM (Table 1).
Cell Culture. All cells were maintained in an incubator at 37 degrees C and 5% CO2 with 95% humidity. The PDC lines were cultured according to standard operating procedures established by the NCI PDMR (https://pdmr.cancer.gov). Briefly, all PDCs were thawed and cultured in Matrigel-coated flasks prepared with a working solution of 1X Ham's F-12 nutrient mix, without supplementation (Invitrogen, Waltham, MA, cat. 11765054), 100 U/mL penicillin-streptomycin (Invitrogen, cat. 15140122), and 2.5% Matrigel (Corning Inc., Corning, NY, cat. 354248) for the first three passages. All PDCs were cultured in complete DMEM/F-12 media containing advanced DMEM/F-12 (Invitrogen, cat. 12634028), 4.9% defined fetal bovine serum, heat inactivated (HyClone Laboratories Inc., Logan, UT, cat. SH30070.03HI), 389 ng/mL hydrocortisone (Sigma-Aldrich, cat. H4001), 9.7 ng/mL human EGF recombinant protein (Invitrogen, cat. PHG0313), 23.4 microg/mL adenine (Sigma-Aldrich, cat. A2786), 97.3 U/mL penicillin-streptomycin (Invitrogen, cat. 15140122), 1.9 mM L-glutamine (Invitrogen, cat. 25030081), and 9.7 microM Y-27632 dihydrochloride (Tocris Bioscience, Bristol, United Kingdom, cat. 1254). The PDCs were cultured in complete DMEM/F12 media without 10 microM Y-27632 dihydrochloride for at least two passages prior to the screen. The established cell lines NCI-H1341 and […] were cultured in DMEM/F-12, HEPES (Invitrogen, cat. 11330032), 5% defined fetal bovine serum (HyClone Laboratories Inc., cat. SH30070.03), ITS premix universal culture supplement [insulin (5 microg/mL), transferrin (5 microg/mL), and selenious acid (5 ng/mL)] […]
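Note: luminescence taken as a proxy for viable cell amount.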
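Throughout, for viability, T/C: percent of DMSO vehicle control where 100% means growth equal to vehicle.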

`CC(C)CC(NC(=O)C(Cc1ccccc1)NC(=O)c1cnccn1)B(O)O` (stereo not drawn): the IC50 is 4.29 nM and 5.5 nM and 2.88 nM. Further, the viability, T/C (compound 0.000949 µM) was 99.7% and 97.7% and 92.7%. In addition, for the setting “compound 0.003 µM”, the viability, T/C was 69.5% and 94.8% and 48.4%. For the same compound, under “compound 0.00949 µM”, the viability, T/C is 6.8% and 9.74% and 2.07%. The viability, T/C (compound 0.03 µM) was 0.44% and 0.8% and 0.23%. Further, the viability, T/C (compound 0.0949 µM) is 0.15% and 0.2% and 0.16%. Besides, the viability, T/C (compound 0.3 µM) was 0.19% and 0.35% and 0.18%.

With `CC1(C)CCC(CN2CCN(c3ccc(C(=O)NS(=O)(=O)c4ccc(NCC5CCOCC5)c([N+](=O)[O-])c4)c(Oc4cnc5[nH]ccc5c4)c3)CC2)=C(c2ccc(Cl)cc2)C1`, the IC50 was 9240 nM and 6400 nM and 6390 nM. In addition, the viability, T/C (compound 0.0316 µM) was 100% and 112% and 101%. The viability, T/C (compound 0.1 µM) was 105% and 99.6% and 110%. For the same compound, under “compound 0.316 µM”, the viability, T/C is 94.1% and 105% and 96.2%. For the same compound, the viability, T/C (compound 1 µM) was 98.5% and 101% and 95.5%. For the same compound, the viability, T/C (compound 3.16 µM) was 98.2% (2×) and 102%. Under “compound 10 µM”, the viability, T/C was 46.4% and 19.4% and 17.5%.

`CC1COCCN1c1cc(-c2ccnn2C)c2ccnc(-c3ccn[nH]3)c2n1` (stereo not drawn): the IC50 was 597 nM and 726 nM and 723 nM. In addition, where the note is “compound 0.00316 µM”, the viability, T/C is 97.6% and 98.2% and 105%. Moreover, the viability, T/C (compound 0.01 µM) was 102% and 105% and 98.7%. Moreover, the viability, T/C (compound 0.0316 µM) is 106% and 82.9% and 90.9%. Further, the viability, T/C (compound 0.1 µM) was 86.3% and 83.7% and 85%. Where the note is “compound 0.316 µM”, the viability, T/C was 62.1% and 66.7% and 69.9%. For the same compound, the viability, T/C (compound 1 µM) is 40.7% and 43.3% and 42%.

`CCN(c1cc(-c2ccc(CN3CCOCC3)cc2)cc(C(=O)NCc2c(C)cc(C)[nH]c2=O)c1C)C1CCOCC1`: the IC50 is above 3000 nM. Also, the viability, T/C (compound 0.00949 µM) was 102% and 110% and 103%. For the same compound, the viability, T/C (compound 0.03 µM) was 111% and 109% and 112%. For the same compound, the viability, T/C (compound 0.0949 µM) is 103% and 98.8% and 101%. Also, the viability, T/C (compound 0.3 µM) is 99.3% and 99% and 107%. Also, the viability, T/C (compound 0.949 µM) is 122% and 101% and 121%. The viability, T/C (compound 3 µM) is 106% and 110% and 113%.

On to `CC[C@@]1(O)C(=O)OCc2c1cc1n(c2=O)Cc2cc3c(CN(C)C)c(O)ccc3nc2-1`, for which the IC50 is above 100 nM. Also, the viability, T/C (compound 0.000316 µM) is 104% and 108% and 106%. In addition, the viability, T/C (compound 0.001 µM) is 112% and 105% and 93.5%. Also, the viability, T/C (compound 0.00316 µM) was 100% and 102% and 95.9%. For the same compound, where the note is “compound 0.01 µM”, the viability, T/C was 90.5% and 93.7% and 90%. Moreover, the viability, T/C (compound 0.0316 µM) is 85.8% and 111% and 87.9%. Moreover, under “compound 0.1 µM”, the viability, T/C was 68.1% and 69.4% and 73.8%.

`CCc1c2c(nc3ccc(O)cc13)-c1cc3c(c(=O)n1C2)COC(=O)[C@]3(O)CC`: the IC50 was 67.4 nM and 111 nM and 123 nM. In addition, the viability, T/C (compound 0.000949 µM) is 95.1% and 92.3% and 101%. The viability, T/C (compound 0.003 µM) was 87% and 101% and 106%. Under “compound 0.00949 µM”, the viability, T/C was 95.9% and 86.3% and 92.1%. The viability, T/C (compound 0.03 µM) is 62.3% and 66% and 69.1%. For the same compound, the viability, T/C (compound 0.0949 µM) is 47.3% and 57% and 58.6%. The viability, T/C (compound 0.3 µM) is 30.2% and 32.5% and 34.4%.

`COc1cc(C2c3cc4c(cc3C(OC3OC5COC(C)OC5C(O)C3O)C3COC(=O)C23)OCO4)cc(OC)c1O` (stereo not drawn): the IC50 was above 10000 nM. Also, the viability, T/C (compound 0.0316 µM) is 95.8% and 105% and 103%. Besides, where the note is “compound 0.1 µM”, the viability, T/C is 109% and 113% and 98.3%. The viability, T/C (compound 0.316 µM) is 99.8% and 102% and 96.6%. In addition, the viability, T/C (compound 1 µM) is 86.4% and 106% and 110%. Also, the viability, T/C (compound 3.16 µM) is 80.5% and 96.5% and 87.8%. Besides, under “compound 10 µM”, the viability, T/C was 64.3% and 75.6% and 70.2%.

For `COc1cc(Nc2ncc3c(n2)-c2ccc(Cl)cc2C(c2c(F)cccc2OC)=NC3)ccc1C(=O)O`, the IC50 is 5980 nM and 5060 nM and 6780 nM. For the same compound, the viability, T/C (compound 0.0316 µM) is 87.2% and 100% and 93.8%. Under “compound 0.1 µM”, the viability, T/C was 81% and 83.4% and 82.2%. Further, the viability, T/C (compound 0.316 µM) is 67.8% and 64.2% and 72.7%. Moreover, the viability, T/C (compound 1 µM) was 76.2% and 77.1% and 73.1%. The viability, T/C (compound 3.16 µM) was 67% and 61% and 63.3%. The viability, T/C (compound 10 µM) was 37.5% and 36.6% and 41.4%.

`COc1cccc2c1C(=O)c1c(O)c3c(c(O)c1C2=O)CC(O)(C(=O)CO)CC3OC1CC(N)C(O)C(C)O1` (stereo not drawn): the IC50 was 628 nM and 828 nM and 812 nM. In addition, under “compound 0.0316 µM”, the viability, T/C is 88% and 108% (2×). Further, for the setting “compound 0.1 µM”, the viability, T/C was 82.8% and 79.7% and 87.9%. For the same compound, the viability, T/C (compound 0.316 µM) was 65.5% and 75.9% and 69.5%. For the same compound, the viability, T/C (compound 1 µM) was 40.7% and 49.1% and 47.5%. In addition, under “compound 3.16 µM”, the viability, T/C is 9.35% and 15.7% and 20.4%. Besides, under “compound 10 µM”, the viability, T/C was 0.71% and 0.83% and 1.09%.

The values above are taken from PubChem BioAssay AID1919013 (Molecular Pharmacology Branch, DTP, NCI, 2023).
